Results reported in PMC3556224 (Journal of natural products, 2013).
pKi: −log10 of the molar value.

How the values were obtained:
hiCE = molecular target: T1, hiCE (Homo sapiens, UniProt O00748); assay type: cell-based; conditions: 4-MUA, U373MG cells
T1 sequence (O00748 27-559): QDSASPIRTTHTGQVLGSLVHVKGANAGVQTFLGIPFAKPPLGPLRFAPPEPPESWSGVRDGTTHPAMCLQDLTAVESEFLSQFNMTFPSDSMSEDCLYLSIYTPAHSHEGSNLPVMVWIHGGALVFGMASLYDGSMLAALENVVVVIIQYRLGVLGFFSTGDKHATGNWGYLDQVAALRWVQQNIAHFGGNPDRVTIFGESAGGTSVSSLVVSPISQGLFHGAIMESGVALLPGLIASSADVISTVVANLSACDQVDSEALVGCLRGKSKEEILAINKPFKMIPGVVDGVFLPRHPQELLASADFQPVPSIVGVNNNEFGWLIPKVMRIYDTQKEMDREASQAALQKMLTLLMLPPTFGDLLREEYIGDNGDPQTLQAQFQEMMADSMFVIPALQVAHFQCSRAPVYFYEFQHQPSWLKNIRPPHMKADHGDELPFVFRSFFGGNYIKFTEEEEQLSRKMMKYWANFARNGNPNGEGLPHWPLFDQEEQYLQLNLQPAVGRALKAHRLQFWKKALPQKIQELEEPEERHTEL

hBChE = hBChE (Homo sapiens, UniProt P06276); experiment: Inhibition of hBChE with butyrylthiocholine as substrate; assay type: biochemical
Chain of hBChE (P06276 29-602): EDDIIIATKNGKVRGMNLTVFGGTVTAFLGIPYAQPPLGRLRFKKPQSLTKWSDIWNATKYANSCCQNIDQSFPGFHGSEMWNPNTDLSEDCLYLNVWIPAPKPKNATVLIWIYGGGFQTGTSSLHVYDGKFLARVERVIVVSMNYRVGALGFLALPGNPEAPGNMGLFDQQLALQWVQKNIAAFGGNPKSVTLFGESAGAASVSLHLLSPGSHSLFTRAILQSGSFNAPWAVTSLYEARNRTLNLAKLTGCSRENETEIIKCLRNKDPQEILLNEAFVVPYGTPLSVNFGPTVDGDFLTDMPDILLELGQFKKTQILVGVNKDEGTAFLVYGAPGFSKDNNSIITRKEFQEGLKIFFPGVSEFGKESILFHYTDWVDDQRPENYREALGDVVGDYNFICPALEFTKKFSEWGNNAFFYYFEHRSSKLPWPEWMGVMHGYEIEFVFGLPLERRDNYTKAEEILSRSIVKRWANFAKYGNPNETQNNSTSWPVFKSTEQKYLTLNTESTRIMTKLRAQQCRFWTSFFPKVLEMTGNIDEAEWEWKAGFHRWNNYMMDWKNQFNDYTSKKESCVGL

hAChE = hAChE (Homo sapiens, UniProt P22303); experiment: Inhibition of hAChE with acetylthiocholine as substrate; assay type: biochemical
Chain of hAChE (P22303 32-614): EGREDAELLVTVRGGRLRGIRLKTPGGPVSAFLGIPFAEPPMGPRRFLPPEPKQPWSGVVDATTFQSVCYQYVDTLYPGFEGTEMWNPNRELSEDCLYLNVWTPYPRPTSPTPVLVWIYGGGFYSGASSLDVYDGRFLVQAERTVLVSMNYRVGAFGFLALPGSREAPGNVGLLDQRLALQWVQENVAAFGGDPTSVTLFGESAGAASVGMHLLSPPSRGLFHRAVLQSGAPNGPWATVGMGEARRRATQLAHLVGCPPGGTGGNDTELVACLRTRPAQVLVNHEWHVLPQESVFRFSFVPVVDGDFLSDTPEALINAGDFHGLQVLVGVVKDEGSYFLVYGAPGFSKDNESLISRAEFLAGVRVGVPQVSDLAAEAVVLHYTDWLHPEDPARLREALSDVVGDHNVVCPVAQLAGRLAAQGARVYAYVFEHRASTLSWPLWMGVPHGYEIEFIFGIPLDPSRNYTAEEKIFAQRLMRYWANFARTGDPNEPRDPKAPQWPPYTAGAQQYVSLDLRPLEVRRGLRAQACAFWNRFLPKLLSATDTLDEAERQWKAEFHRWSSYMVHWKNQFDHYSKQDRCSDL

Cc1c(S(=O)(=O)[O-])oc2c1C(=O)C(=O)c1c-2ccc2c1CCCC2(C)C.[Na+] [compound 25, 6,7,8,9,10,11-hexahydro-1,6,6-trimethyl-10,11-dioxo-phenanthro[1,2-b] furan-2-sulfonic acid, sodium salt]
intracellular inhibition of hiCE (in words) (hiCE): failed to inhibit

Cc1coc2c1C(=O)C(=O)c1c-2ccc2c(C)cccc12 [compound 21, 1,6-dimethyl-phenanthro [1,2-b] furan-10,11-dione]
pKi (hBChE): < 4.00

Cc1coc2c1C(=O)C(=O)c1c-2ccc2c1CCCC2(C)C [compound 7, 1,6,6-trimethyl-6,7,8,9-tetrahydrophenanthro[1,2-b] furan-10,11-dione]
inhibition of hAChE (in words) (hAChE): did not inhibit | pKi (hBChE): < 4.00 | inhibition of hBChE (in words) (hBChE): did not inhibit

C[C@H]1COC2=C1C(=O)C(=O)c1c2ccc2c1CCCC2(C)C [compound 24, 1,2,6,7,8,9-hexahydro-1,6,6-trimethyl-(1R)-phenanthro [1,2-b] furan-10,11-dione]
inhibition of hAChE (in words) (hAChE): modest activity | inhibition of hBChE (in words) (hBChE): not BChE

Cc1cccc2c3c(ccc12)C1=C(C(=O)C3=O)[C@@H](C)CO1 [compound 22, 1,2-dihydro-1,6-dimethyl-(1R)-phenanthro [1,2-b] uran-10,11-dione]
inhibition of hAChE (in words) (hAChE): modest activity | pKi (hBChE): < 4.00 | inhibition of hBChE (in words) (hBChE): not BChE
